The values below come from PubChem BioAssay AID504557 (Johns Hopkins Ion Channel Center, 2011).

Each structure is given as a SMILES string. pIC50: −log10 of the molar value. Active and inactive are the calls of the source.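 How the source made its calls: active means blocks current through the Kir2.1 potassium channel at one or more tested doses and yields a dose response curve; inactive means no block at any dose, or no dose response.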

The target in this assay is Inward rectifier potassium channel 2 (Mus musculus) (UniProt P35561). Kind of assay: mouse Kir2.1 channel inhibitors, SAR follow-up, cell-based, thallium flux, FluxOR (AID 504557). The following applies: Kir2.1 stable cells, FluxOR thallium flux fluorescence; for activity change, negative = inhibition: at 71 µM (top of the series).
Inward rectifier potassium channel 2 (Mus musculus), sequence (P35561 whole entry, looked up): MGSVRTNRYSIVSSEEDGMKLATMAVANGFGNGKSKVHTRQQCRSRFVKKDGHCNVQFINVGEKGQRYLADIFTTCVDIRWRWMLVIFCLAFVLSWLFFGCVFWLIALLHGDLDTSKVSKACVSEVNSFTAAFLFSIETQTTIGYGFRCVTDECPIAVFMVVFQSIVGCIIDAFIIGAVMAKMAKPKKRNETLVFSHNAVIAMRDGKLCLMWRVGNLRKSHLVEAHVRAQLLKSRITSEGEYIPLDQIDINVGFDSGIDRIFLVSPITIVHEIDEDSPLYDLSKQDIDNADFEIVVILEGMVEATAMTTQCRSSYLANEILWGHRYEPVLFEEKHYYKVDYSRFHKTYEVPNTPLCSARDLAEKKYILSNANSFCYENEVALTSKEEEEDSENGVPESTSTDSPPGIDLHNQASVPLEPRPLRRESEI

For `O=C(NCC1CCCCN1)c1cc(OCC(F)(F)F)ccc1OCC(F)(F)F` (configuration not stated), the “activity change, negative = inhibition” value is “inactive”.
Consider `C[C@H](NS(=O)(=O)c1ccc(Cl)cc1)c1ccccc1`, for which the pIC50 is 4.93.
On the same count and under the same terms, then `C[C@@H](NS(=O)(=O)c1ccc(Br)cc1)c1ccccc1`, with 4.60; and `c1ccc(COc2ccc(OCCCNC3CCCC3)cc2)cc1`, with 4.93.
Turning to `O=S(=O)(c1ccc(F)cc1)N1CCCc2ccccc21`, the “activity change, negative = inhibition” value was “inactive”.
Take `C[C@H](NS(=O)(=O)c1ccccc1)c1ccccc1`: the pIC50 was 5.31.
Consider `C[C@@H](NS(=O)(=O)c1ccccc1)c1ccccc1`, for which the “activity change, negative = inhibition” value is “inactive”.
As to `c1ccc(CNc2c3ccccc3nc3ccccc23)cc1`, the pIC50 is 4.88.
On the same count and under the same terms, then `C[C@H](NS(=O)(=O)c1ccccc1Br)c1ccccc1`, with 4.89; and `C[C@@H](NS(=O)(=O)c1cccc(Br)c1)c1ccccc1`, with 5.12; and `Cc1ccc(S(=O)(=O)N[C@@H](C)c2ccccc2)cc1`, with 4.82.
As to `Cc1ccc(Nc2cc(C)nc3c(C)cccc23)cc1`, the pIC50 was 5.12.
Same read-out and setting: then `C[C@@H](NS(=O)(=O)c1ccccc1Br)c1ccccc1`, with 4.88.
For `Cc1ccc(C)c(OCCCNCc2ccccc2)c1`, the pIC50 was 5.86.
For the molecule `C[C@@H](NS(=O)(=O)c1cc(Cl)cc(Cl)c1O)c1ccccc1`, the “activity change, negative = inhibition” value is “inactive”.
On to `C[C@H](NS(C)(=O)=O)c1ccccc1`, for which the pIC50 is 5.32.
On the same count and under the same terms, to `Cc1ccc2nc(N3CCN(CCO)CC3)nc(-c3ccccc3)c2c1` belongs 4.86.
`CC(NS(=O)(=O)c1ccc(Br)cc1)c1ccccc1` (configuration not stated): the pIC50 was 5.16.
On the same count and under the same terms, to `Cc1noc(C)c1COC(=O)CCN1c2ccccc2Sc2ccccc21` belongs 5.12.
As for `C[C@@H](NS(C)(=O)=O)c1ccccc1`, the “activity change, negative = inhibition” value is “inactive”.
For `Cc1ccc2nc(NCc3ccccc3)[nH]c2c1`, the pIC50 is 4.87.
Same read-out and setting: to `CC(O)CNCCCOc1cccc(Oc2ccccc2)c1` (configuration not stated) belongs 6.17; to `Cc1ccc(S(=O)(=O)N[C@H](C)c2ccccc2)cc1`, 5.02.
As for `C[C@@H](NS(=O)(=O)c1ccc(Cl)cc1)c1ccccc1`, the pIC50 is 4.87.
Consider `C[C@H](NS(=O)(=O)c1cc(Cl)cc(Cl)c1O)c1ccccc1`, for which the negative-log IC50 (pIC50) is 4.47.
The same measure, in the same setting: then `C[C@H](NS(=O)(=O)c1ccc(Br)cc1)c1ccccc1`, with 5.15.
On to `C[C@H](NS(=O)(=O)c1cccc(Br)c1)c1ccccc1`, for which the pIC50 is 4.96.
